Literature values as cited in US20030125243A1, “Synthesis of cyclic peptides” (priority 2000, published 2003).

Molecular target: αvβ3 (Homo sapiens, UniProt P05106+P06756)
Settings: background statement, Haubner et al. 1996

Chain of αvβ3 (P06756 31-889 limits assumed): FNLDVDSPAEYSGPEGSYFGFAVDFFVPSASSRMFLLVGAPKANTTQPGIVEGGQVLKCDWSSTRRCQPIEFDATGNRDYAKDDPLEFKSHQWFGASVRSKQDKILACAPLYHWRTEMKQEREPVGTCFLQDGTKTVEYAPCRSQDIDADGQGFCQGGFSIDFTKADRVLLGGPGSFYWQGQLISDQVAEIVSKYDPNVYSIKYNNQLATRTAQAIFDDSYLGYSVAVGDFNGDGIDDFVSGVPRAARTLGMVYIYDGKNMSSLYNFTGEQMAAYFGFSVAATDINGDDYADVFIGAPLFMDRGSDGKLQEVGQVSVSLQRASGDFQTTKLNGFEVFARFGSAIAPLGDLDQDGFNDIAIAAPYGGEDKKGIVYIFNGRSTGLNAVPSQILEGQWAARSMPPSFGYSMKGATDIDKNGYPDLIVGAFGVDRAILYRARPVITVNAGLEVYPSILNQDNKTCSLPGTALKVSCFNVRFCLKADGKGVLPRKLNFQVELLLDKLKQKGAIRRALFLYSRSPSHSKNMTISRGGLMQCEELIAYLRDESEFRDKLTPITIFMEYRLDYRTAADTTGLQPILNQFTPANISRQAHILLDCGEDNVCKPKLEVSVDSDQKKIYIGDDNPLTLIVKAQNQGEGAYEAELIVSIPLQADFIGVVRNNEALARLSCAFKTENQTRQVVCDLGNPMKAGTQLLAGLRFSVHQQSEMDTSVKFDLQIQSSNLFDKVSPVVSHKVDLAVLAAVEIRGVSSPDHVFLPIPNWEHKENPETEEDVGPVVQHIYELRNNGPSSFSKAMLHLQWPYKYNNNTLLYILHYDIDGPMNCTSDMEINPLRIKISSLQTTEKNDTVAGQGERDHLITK
Chain of αvβ3 (P06756 891-1048 partner limits assumed): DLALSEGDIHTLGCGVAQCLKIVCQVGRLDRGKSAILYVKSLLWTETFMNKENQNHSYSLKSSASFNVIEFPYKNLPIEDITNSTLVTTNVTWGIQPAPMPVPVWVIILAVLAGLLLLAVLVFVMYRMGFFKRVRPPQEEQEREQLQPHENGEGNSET
Chain of αvβ3 (P05106 27-788): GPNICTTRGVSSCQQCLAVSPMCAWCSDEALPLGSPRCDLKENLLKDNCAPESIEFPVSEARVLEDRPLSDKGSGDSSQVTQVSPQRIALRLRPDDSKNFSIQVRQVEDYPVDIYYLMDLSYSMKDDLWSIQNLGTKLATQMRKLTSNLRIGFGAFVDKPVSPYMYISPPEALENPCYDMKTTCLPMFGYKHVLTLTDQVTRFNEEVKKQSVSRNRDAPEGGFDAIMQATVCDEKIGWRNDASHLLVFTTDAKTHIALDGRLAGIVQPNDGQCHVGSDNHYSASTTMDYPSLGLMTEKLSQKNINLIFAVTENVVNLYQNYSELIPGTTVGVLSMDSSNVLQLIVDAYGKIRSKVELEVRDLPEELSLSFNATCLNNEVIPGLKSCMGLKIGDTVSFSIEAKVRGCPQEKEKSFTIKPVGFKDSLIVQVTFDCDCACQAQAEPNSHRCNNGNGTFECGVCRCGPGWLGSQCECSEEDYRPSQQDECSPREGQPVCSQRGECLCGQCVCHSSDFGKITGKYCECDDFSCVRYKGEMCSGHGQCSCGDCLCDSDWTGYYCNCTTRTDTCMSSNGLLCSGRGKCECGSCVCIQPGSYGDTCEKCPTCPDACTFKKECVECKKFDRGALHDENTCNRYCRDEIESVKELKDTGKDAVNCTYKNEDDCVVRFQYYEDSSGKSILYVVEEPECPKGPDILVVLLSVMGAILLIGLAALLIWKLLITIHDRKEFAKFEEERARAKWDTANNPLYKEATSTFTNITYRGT

binding to αvβ3 (potency and selectivity): high potency and selectivity
Substance: cRGDfK
